In article PMC7076352 (Pharmaceutics, 2020):

Tests used:
CYP2E1 [1] = biological target: T1, CYP2E1 (Rattus norvegicus, UniProt P05182); details: at the Cmax level in rat plasma, calculated from the dose–response curve
in vivo = test: in vivo; design: species or system Sprague-Dawley (SD) rats; details: Sprague-Dawley, plasma, rat; for concentration at […]: 0.083 h after oral CNP; for AUC(0-inf) / AUC(0-t) / Cmax / Tmax / half-life: 60 mg/kg
Protocol: At each time, 0.5 mL of blood was collected in the heparin sodium tubes. Plasma was separated by centrifugation at 4000 rpm for 10 min and stored below −80 °C until bioanalysis. Oasis PRiME HLB SPE cartridges (1 cc/30 mg, Waters, Milford, MA, USA) were used to process the plasma samples (Supplementary Materials).
The generic layout of instrumentation setup of the LVDI-UHPLC-MS/MS was conducted on a Shimadzu UHPLC system consisting of two LC-20ADXR pumps, a DGU-20A3R degasser, and a CBM-20A controller (Kyoto, Japan) with a SCIEX 4500 QTRAP mass spectrometer mounted with an electron spray ionization (ESI) interface as well as an electronic 6-port/2-channel valve (Foster City, CA, USA). Analyst software package (version 1.6.2, SCIEX) was implemented to control and synchronize the entire system, and also for data acquisition and processing. A single analytical run was fragmented into two phases, namely, loading and elution phases, by switching the electronic valve (Figure 2). At the loading phase, the valve was maintained at A-channel. The specimen aliquot of large volume delivered from the auto-sampler was captured onto a guard column. Meanwhile, the pumps were responsible for delivering the mobile phase at a high flow rate, aiming to dilute the sample solvent, thus facilitating the candidate constituents to concentrate on the pre-guard column. Then, the valve was automatically switched to the B-channel to trigger the elution phase. The trapped components were flushed from the pre-guard column into an analytical column, and underwent multiple reaction monitoring (MRM) analysis on the optimized LC gradients. The detailed information of LVDI-UHPLC-MS/MS analysis for pharmacokinetic and cocktail studies is shown in the Supplementary Materials section.

CYP2E1 [2] = biological target: T1, CYP2E1; details: IC50 CYP2E1, single components; RLM 0.2 mg/mL, 15 min, triplicate, mean ± SD
CYP2C19 = test: In vitro cocktail CYP450 activity assay in rat liver microsomes, CYP2C19 (omeprazole probe); details: for IC50 at 15 min: Sprague-Dawley, rat, pooled rat liver microsomes, pH 7.4, probe omeprazole (1.07 µM, in seven-probe cocktail), IC50 CYP2C19, single components, RLM 0.2 mg/mL, triplicate, mean ± SD; for Response (% control) CYP2C19: at the Cmax level in rat plasma, calculated from the dose–response curve
Protocol: (§1) (OHBUP-[D6]) and 5 nM 4′-hydroxydiclofenac-[^13C6] (OHDIC-[^13C6]) as internal standards (ISs). […]
(§2) standard addition experiments. Each group included four concentration levels. For the PK […]
(§3) The probe compounds, viz. […]
(§4) chosen after incubating all the recruited substrates. In order to assure the linear relationship […]
(§5) The incubation system was also optimized in terms of substrate concentrations. The substrates concentrations of […]

CYP3A4 = test: in vitro; details: Sprague-Dawley, rat, pH 7.4; for Response (% control) CYP3A4: 15 min; for IC50 at 15 min: microsomes
Protocol: as §1, §2, §3, §4, §5

CYP2C9 = test: In vitro cocktail CYP450 activity assay in rat liver microsomes, CYP2C9 (tolbutamide probe); details: for IC50 at 15 min: Sprague-Dawley, rat, pooled rat liver microsomes, pH 7.4, probe tolbutamide (18 µM, in seven-probe cocktail), IC50 CYP2C9, single components, RLM 0.2 mg/mL, triplicate, mean ± SD; for Response (% control) CYP2C9: at the Cmax level in rat plasma, calculated from the dose–response curve
Protocol: as §1, §2, §3, §4, §5

CYP2B6 = test: In vitro cocktail CYP450 activity assay in rat liver microsomes, CYP2B6 (bupropion probe); details: for IC50 at 15 min: Sprague-Dawley, rat, pooled rat liver microsomes, pH 7.4, probe bupropion (90 µM, in seven-probe cocktail), IC50 CYP2B6, single components, RLM 0.2 mg/mL, triplicate, mean ± SD
Protocol: as §1, §2, §3, §4, §5

CYP2D6 = test: in vitro; details: Sprague-Dawley, rat; for Response (% control) CYP2D6: 15 min, pH 7.4; for IC50 at 15 min: microsomes, pH 7.4, IC50 CYP2D6
Protocol: as §1, §2, §3, §4, §5

CYP1A2 = biological target: T2, CYP1A2 (Rattus norvegicus, UniProt P04799); test: In vitro cocktail CYP450 activity assay in rat liver microsomes, CYP1A2 (phenacetin probe); details: for IC50: IC50 CYP1A2, single components, RLM 0.2 mg/mL, 15 min, triplicate, mean ± SD; for Response (% control) CYP1A2: at the Cmax level in rat plasma, calculated from the dose–response curve
T2 sequence (P04799 1-513): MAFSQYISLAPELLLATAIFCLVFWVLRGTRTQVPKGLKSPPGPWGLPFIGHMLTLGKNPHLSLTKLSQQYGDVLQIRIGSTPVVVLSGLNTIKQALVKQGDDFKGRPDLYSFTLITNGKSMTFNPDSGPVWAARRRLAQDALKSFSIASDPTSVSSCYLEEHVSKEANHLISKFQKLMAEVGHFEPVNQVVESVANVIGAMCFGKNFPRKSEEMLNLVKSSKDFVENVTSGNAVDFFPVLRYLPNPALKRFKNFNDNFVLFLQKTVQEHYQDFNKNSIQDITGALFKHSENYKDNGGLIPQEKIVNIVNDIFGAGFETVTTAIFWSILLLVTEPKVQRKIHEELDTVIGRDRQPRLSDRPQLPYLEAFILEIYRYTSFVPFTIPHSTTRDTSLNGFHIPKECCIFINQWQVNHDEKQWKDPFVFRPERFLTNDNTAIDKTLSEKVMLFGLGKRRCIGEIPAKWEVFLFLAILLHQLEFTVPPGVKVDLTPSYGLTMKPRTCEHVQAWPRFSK
Protocol: as §1, §2, §3, §4, §5

T1 sequence (P05182 whole entry): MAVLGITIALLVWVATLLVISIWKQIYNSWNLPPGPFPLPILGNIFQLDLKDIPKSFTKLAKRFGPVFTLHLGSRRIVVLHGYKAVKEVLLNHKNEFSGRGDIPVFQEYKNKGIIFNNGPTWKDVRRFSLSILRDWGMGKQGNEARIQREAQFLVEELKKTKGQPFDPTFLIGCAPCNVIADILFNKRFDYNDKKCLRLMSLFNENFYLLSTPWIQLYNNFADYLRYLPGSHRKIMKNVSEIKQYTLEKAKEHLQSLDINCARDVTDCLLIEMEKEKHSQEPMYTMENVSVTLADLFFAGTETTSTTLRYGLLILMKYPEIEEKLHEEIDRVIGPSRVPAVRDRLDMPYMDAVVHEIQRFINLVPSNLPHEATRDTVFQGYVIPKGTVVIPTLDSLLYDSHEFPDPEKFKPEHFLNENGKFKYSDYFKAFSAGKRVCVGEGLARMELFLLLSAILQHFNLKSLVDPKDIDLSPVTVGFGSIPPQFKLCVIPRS

## CC(C)=CCC[C@](C)(O[C@@H]1O[C@H](CO[C@@H]2O[C@H](CO)[C@@H](O)[C@H](O)[C@H]2O)[C@@H](O)[C@H](O)[C@H]1O)[C@H]1CC[C@]2(C)[C@@H]1[C@H](O)C[C@@H]1[C@@]3(C)CC[C@H](O[C@@H]4O[C@H](CO)[C@@H](O)[C@H](O)[C@H]4O[C@@H]4O[C@H](CO)[C@@H](O)[C@H](O)[C@H]4O)C(C)(C)[C@@H]3CC[C@]12C [GRb1, ginsenoside Rb1]
CYP2E1 [1]
  Response (% control) CYP2E1: 99.99 % control
In vivo
  concentration at […]: 18.7 ± 4.36 ng/mL
In vivo; 0.25 h after oral CNP
  concentration at 0.25 h: 22.5 ± 4.27 ng/mL
In vivo; 0.5 h after oral CNP
  concentration at 0.5 h: 36.1 ± 7.79 ng/mL
In vivo; 1 h after oral CNP
  concentration at 1 h: 45.5 ± 3.29 ng/mL
In vivo; 1.5 h after oral CNP
  concentration at 1.5 h: 54.6 ± 10.9 ng/mL
In vivo; 2 h after oral CNP
  concentration at 2 h: 60.5 ± 12 ng/mL
In vivo; 3 h after oral CNP
  concentration at 3 h: 69.5 ± 9.4 ng/mL
In vivo; 4 h after oral CNP
  concentration at 4 h: 83.9 ± 31.8 ng/mL
In vivo; 6 h after oral CNP
  concentration at 6 h: 113 ± 74.6 ng/mL
In vivo; 8 h after oral CNP
  concentration at 8 h: 80 ± 20.6 ng/mL
In vivo; 12 h after oral CNP
  concentration at 12 h: 63.9 ± 28.4 ng/mL
In vivo; 24 h after oral CNP
  concentration at 24 h: 22.4 ± 4.86 ng/mL
In vivo; 48 h after oral CNP
  concentration at 48 h: 19.4 ± 3.81 ng/mL
In vivo; 72 h after oral CNP
  concentration at 72 h: 9.62 ± 1.02 ng/mL
In vivo; 96 h after oral CNP
  concentration at 96 h: 6.43 ± 2.45 ng/mL
In vivo; po
  AUC(0-inf): 2810 ± 618 ng·h/mL
  AUC(0-t): 2320 ± 683 ng·h/mL
  Cmax: 113 ± 41.8 ng/mL
  Tmax: 5.5 ± 1.8 h
  half-life: 36.9 ± 9.65 h
In vivo; po, 60 mg·kg^−1
  concentration at 0.25 h: 27.9 ± 4.54 ng/mL
  concentration at 0.5 h: 38.1 ± 3.67 ng/mL
  concentration at 1 h: 53.5 ± 12 ng/mL
  concentration at 1.5 h: 58.4 ± 12.4 ng/mL
  concentration at 2 h: 61.9 ± 19.5 ng/mL
  concentration at 3 h: 78.1 ± 12.8 ng/mL
  concentration at 4 h: 86.9 ± 41 ng/mL
  concentration at 6 h: 107 ± 42.1 ng/mL
  concentration at 8 h: 75.7 ± 26.3 ng/mL
  concentration at 12 h: 53.9 ± 19.1 ng/mL
  concentration at 24 h: 19.2 ± 5.86 ng/mL
  concentration at 48 h: 18.9 ± 8.97 ng/mL
  concentration at 72 h: 9.45 ± 3.37 ng/mL
  concentration at 96 h: 6.79 ± 1.89 ng/mL
CYP2E1 [2]
  IC50: 28 ± 2.39 µM
CYP2C19
  IC50 at 15 min: 16.8 ± 2.52 µM
  Response (% control) CYP2C19: 98.58 % control
CYP3A4
  Response (% control) CYP3A4: 99.99 % control
  IC50 at 15 min: 30 ± 2.47 µM
CYP2C9
  IC50 at 15 min: 17.6 ± 2.03 µM
  Response (% control) CYP2C9: 99.70 % control
CYP2B6
  IC50 at 15 min: 121 ± 10.9 µM
CYP2B6; at the Cmax level in rat plasma, calculated from the dose–response curve
  Response (% control) CYP2B6: 96.46 % control
CYP2D6
  Response (% control) CYP2D6: 98.58 % control
  IC50 at 15 min: 17.1 ± 1.29 µM
CYP1A2
  IC50: 5.84 ± 0.14 µM
  Response (% control) CYP1A2: 79.30 % control

## CC(C)=CCC[C@](C)(O[C@@H]1O[C@H](CO)[C@@H](O)[C@H](O)[C@H]1O)[C@H]1CC[C@]2(C)[C@@H]1[C@H](O)C[C@@H]1[C@@]3(C)CC[C@H](O[C@@H]4O[C@H](CO)[C@@H](O)[C@H](O)[C@H]4O[C@@H]4O[C@H](CO)[C@@H](O)[C@H](O)[C@H]4O)C(C)(C)[C@@H]3CC[C@]12C [GRd, ginsenoside Rd]
CYP2E1 [1]
  Response (% control) CYP2E1: 98.16 % control
In vivo
  concentration at […]: 6.63 ± 0.64 ng/mL
In vivo; 0.25 h after oral CNP
  concentration at 0.25 h: 7.13 ± 0.69 ng/mL
In vivo; 0.5 h after oral CNP
  concentration at 0.5 h: 12.5 ± 4.73 ng/mL
In vivo; 1 h after oral CNP
  concentration at 1 h: 13.5 ± 3.67 ng/mL
In vivo; 1.5 h after oral CNP
  concentration at 1.5 h: 12.8 ± 1.79 ng/mL
In vivo; 2 h after oral CNP
  concentration at 2 h: 17.6 ± 5.2 ng/mL
In vivo; 3 h after oral CNP
  concentration at 3 h: 18.7 ± 7.48 ng/mL
In vivo; 4 h after oral CNP
  concentration at 4 h: 25 ± 15.8 ng/mL
In vivo; 6 h after oral CNP
  concentration at 6 h: 24.9 ± 13.1 ng/mL
In vivo; 8 h after oral CNP
  concentration at 8 h: 15.6 ± 5.29 ng/mL
In vivo; 12 h after oral CNP
  concentration at 12 h: 12.4 ± 7.03 ng/mL
In vivo; 24 h after oral CNP
  concentration at 24 h: 2.85 ± 0.67 ng/mL
In vivo; 48 h after oral CNP
  concentration at 48 h: 3.96 ± 0.34 ng/mL
In vivo; 72 h after oral CNP
  concentration at 72 h: 2.32 ± 0.12 ng/mL
In vivo; po
  AUC(0-inf): 619 ± 157 ng·h/mL
  AUC(0-t): 461 ± 117 ng·h/mL
  Cmax: 29.4 ± 10.7 ng/mL
  Tmax: 4.5 ± 1.76 h
  half-life: 42.8 ± 8.84 h
In vivo; po, 60 mg·kg^−1
  concentration at 0.25 h: 9 ± 2.12 ng/mL
  concentration at 0.5 h: 11.5 ± 0.97 ng/mL
  concentration at 1 h: 13.9 ± 4.94 ng/mL
  concentration at 1.5 h: 14.9 ± 3.51 ng/mL
  concentration at 2 h: 19.2 ± 6.71 ng/mL
  concentration at 3 h: 22.3 ± 14.6 ng/mL
  concentration at 4 h: 23.9 ± 12.6 ng/mL
  concentration at 6 h: 26.2 ± 10.4 ng/mL
  concentration at 8 h: 16.7 ± 7.24 ng/mL
  concentration at 12 h: 8.73 ± 3.74 ng/mL
  concentration at 24 h: 3.57 ± 1.4 ng/mL
  concentration at 48 h: 4.15 ± 1.97 ng/mL
  concentration at 72 h: 2.52 ± 0.63 ng/mL
CYP2E1 [2]
  IC50: 43.46 ± 0.06 µM
CYP2C19
  IC50 at 15 min: 71.4 ± 14.3 µM
  Response (% control) CYP2C19: 99.95 % control
CYP3A4
  Response (% control) CYP3A4: 85.25 % control
  IC50 at 15 min: 61.4 ± 14.3 µM
CYP2C9
  IC50 at 15 min: 73 ± 3.71 µM
  Response (% control) CYP2C9: 99.97 % control
CYP2B6
  IC50 at 15 min: > 200 µM
CYP2D6
  Response (% control) CYP2D6: 99.99 % control
  IC50 at 15 min: 64.8 ± 11.7 µM
CYP1A2
  IC50: 4.36 ± 2.31 µM
  Response (% control) CYP1A2: 71.33 % control
